{"source": "ChEMBL document CHEMBL5226385", "about": "“The Antiangiogenic and Antitumor Effects of Scoparasin B in Non-Small-Cell Lung Cancer” (J Nat Prod, 2023)", "key": {"[1]": {"tested_on": "NCI-H1299", "assay": "Downregulation of Vimentin protein expression in human NCI-H1299 cells at 5 to 15 nM incubated for 24 hrs by western blot analysis", "format": "functional, cell-based", "conditions": "dose 5-15 nM"}, "[2]": {"tested_on": "HUVEC", "assay": "Antiangiogenic activity against human HUVEC cells assessed as inhibition of capillary tube-like structure formation at 15 nM incubated for 6 hrs by Matrigel based analysis", "format": "functional", "design": "scale not given: the % may be the effect or the level left"}, "[3]": {"target": "Vascular endothelial growth factor receptor 2 (Homo sapiens) (UniProt P35968)", "sequence (P35968 whole entry)": "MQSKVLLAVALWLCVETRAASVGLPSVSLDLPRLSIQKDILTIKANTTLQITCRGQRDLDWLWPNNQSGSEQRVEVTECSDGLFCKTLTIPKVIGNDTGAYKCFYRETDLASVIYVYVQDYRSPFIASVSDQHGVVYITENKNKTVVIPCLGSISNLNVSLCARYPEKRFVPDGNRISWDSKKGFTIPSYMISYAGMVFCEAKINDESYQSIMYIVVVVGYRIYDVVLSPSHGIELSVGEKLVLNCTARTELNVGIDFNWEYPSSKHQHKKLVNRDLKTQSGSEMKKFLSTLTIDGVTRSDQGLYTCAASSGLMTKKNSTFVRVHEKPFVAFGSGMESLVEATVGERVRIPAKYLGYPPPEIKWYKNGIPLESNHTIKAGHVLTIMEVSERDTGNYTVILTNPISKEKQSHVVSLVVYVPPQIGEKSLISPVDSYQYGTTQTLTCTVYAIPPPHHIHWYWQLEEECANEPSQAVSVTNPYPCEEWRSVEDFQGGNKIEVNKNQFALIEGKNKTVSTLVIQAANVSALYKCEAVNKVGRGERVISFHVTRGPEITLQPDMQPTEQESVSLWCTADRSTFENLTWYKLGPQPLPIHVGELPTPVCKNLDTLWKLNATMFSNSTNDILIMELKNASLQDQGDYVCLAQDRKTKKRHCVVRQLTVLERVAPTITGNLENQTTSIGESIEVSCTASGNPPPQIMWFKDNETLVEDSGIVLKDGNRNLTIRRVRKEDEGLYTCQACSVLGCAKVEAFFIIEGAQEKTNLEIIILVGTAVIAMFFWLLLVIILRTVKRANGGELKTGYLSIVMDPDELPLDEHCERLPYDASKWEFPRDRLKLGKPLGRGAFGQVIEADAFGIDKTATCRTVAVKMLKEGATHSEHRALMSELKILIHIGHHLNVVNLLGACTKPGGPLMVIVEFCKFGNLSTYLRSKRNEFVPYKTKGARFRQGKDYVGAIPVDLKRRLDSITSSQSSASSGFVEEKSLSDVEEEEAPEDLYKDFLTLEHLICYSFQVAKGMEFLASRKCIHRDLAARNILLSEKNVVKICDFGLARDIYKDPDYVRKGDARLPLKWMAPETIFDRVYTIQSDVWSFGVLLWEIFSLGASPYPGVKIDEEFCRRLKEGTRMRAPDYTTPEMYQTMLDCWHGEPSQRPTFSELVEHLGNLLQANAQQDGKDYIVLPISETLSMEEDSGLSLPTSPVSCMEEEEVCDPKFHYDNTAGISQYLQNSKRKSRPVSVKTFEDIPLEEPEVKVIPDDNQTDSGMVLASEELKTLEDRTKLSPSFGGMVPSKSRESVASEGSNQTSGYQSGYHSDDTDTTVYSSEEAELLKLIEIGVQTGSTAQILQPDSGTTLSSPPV", "assay": "Inhibition of VEGF-A-mediated VEGFR2 signaling pathway in human HUVEC cells assessed as reduction in FAK phosphorylation at Tyr397 residue at 5 to 15 nM incubated for 36 hrs by western blot analysis", "format": "cell-based", "conditions": "dose 5-15 nM"}, "[4]": {"tested_on": "Mus musculus", "assay": "Downregulation of VEGF-A protein expression in tumor of BALB/c nude mouse xenografted with human NCI-H1299 cells at 0.75 to 1.5 mg/kg, ip administered every other day for 20 days by immunohistochemical analysis", "format": "functional, organism-based", "conditions": "dose 0.75-1.5 mg/kg, time 20.0 day"}, "[5]": {"tested_on": "HBVP", "assay": "Inhibition of PDGFR-beta protein expression in human HBVP cells at 5 to 15 nM incubated for 24 hrs by western blot analysis", "format": "functional, cell-based", "conditions": "dose 5-15 nM"}, "[6]": {"tested_on": "NCI-H1299", "assay": "Inhibition of vasculogenic-mimicry in human NCI-H1299 cells assessed as inhibition of cell invasion at 5 to 15 nM measured after 24 hrs by Transwell invasion assay", "format": "functional, cell-based", "conditions": "dose 5-15 nM"}, "[7]": {"tested_on": "NCI-H1299", "assay": "Downregulation of N-Cadherin mRNA expression in human NCI-H1299 cells at 5 to 15 nM incubated for 24 hrs by qPCR analysis", "format": "functional, cell-based", "conditions": "dose 5-15 nM"}, "[8]": {"tested_on": "HUVEC", "assay": "Inhibition of pericyte-mediated angiogenesis in PKH26-labeled human HUVEC cells assessed as reduction in PKH67-labeled HBVP recruitment to newly formed capillary by endothelial cells by measuring reduction in overall vessel coverage for branch points and total tube lengths at 5 to 15 nM pericytes pretreated with compound for 48 hrs followed by incubation with endothelial cells and measured within 3 hrs by Matrigel-based fluorescence analysis", "format": "functional, cell-based", "conditions": "dose 5-15 nM, time 51.0 hrs"}, "[9]": {"tested_on": "NCI-H1299", "assay": "Downregulation of N-Cadherin protein expression in human NCI-H1299 cells at 5 to 15 nM incubated for 24 hrs by western blot analysis", "format": "functional, cell-based", "conditions": "dose 5-15 nM"}, "[10]": {"tested_on": "NCI-H1299", "assay": "Inhibition of vasculogenic-mimicry in human NCI-H1299 cells assessed as inhibition of capillary-like network formation by measuring reduction in tube number and vascular branches at 5 to 15 nM measured after 6 hrs by Matrigel-based analysis", "format": "functional, cell-based", "conditions": "dose 5-15 nM"}, "[11]": {"target": "Vascular endothelial growth factor receptor 2 (Homo sapiens) (UniProt P35968)", "assay": "Inhibition of VEGF-A-mediated VEGFR2 signaling pathway in human HMEC-1 cells assessed as reduction in VEGFR2 phosphorylation at Tyr1175 residue at 5 to 15 nM incubated for 36 hrs by western blot analysis", "format": "cell-based", "conditions": "dose 5-15 nM"}, "[12]": {"assay": "Toxicity against BALB/c nude mouse xenografted with human NCI-H1299 cells assessed as morphological changes in heart at 0.75 to 1.5 mg/kg, ip administered every other day for 20 days by Hematoxylin and eosin staining based inverted microscopic analysis", "format": "organism-based", "conditions": "in vivo, 480 h, dose 0.75-1.5 mg/kg, time 20 day"}, "[13]": {"target": "Vascular endothelial growth factor receptor 2 (Homo sapiens) (UniProt P35968)", "assay": "Inhibition of VEGF-A-mediated VEGF-R2 signaling pathway in human NCI-H1299 cells assessed as reduction in VEGF-R2 phosphorylation at Tyr1175 residue at 5 to 15 nM by western blot analysis", "format": "cell-based", "conditions": "dose 5-15 nM"}, "[14]": {"tested_on": "NCI-H1299", "assay": "Inhibition of vasculogenic-mimicry in human NCI-H1299 cells assessed as inhibition of cell migration at 5 to 15 nM measured after 24 hrs by Transwell migration assay", "format": "functional, cell-based", "conditions": "dose 5-15 nM"}, "[15]": {"tested_on": "HMEC-1", "assay": "Antiangiogenic activity against human HMEC-1 cells assessed as inhibition of cell invasion measured after 24 hrs by Transwell invasion assay", "format": "functional, cell-based", "conditions": "dose 5-15 nM"}, "[16]": {"tested_on": "NCI-H460", "assay": "Cytotoxicity against human NCI-H460 cells assessed as reduction in cell viability measured after 72 hrs by MTT assay", "format": "functional, cell-based", "conditions": "NCI-H460, 72 h"}, "[17]": {"tested_on": "Mus musculus", "assay": "Inhibition of tumor angiogenesis in BALB/c nude mouse xenografted with human NCI-H1299 cells assessed as reduction in microvessel density of the tumor at 0.75 to 1.5 mg/kg, ip administered every other day for 20 days by CD31 staining based immunohistochemical analysis", "format": "functional, organism-based", "conditions": "dose 0.75-1.5 mg/kg, time 20.0 day"}, "[18]": {"tested_on": "NCI-H1299", "assay": "Cytotoxicity against human NCI-H1299 cells assessed as reduction in cell viability at 25 nM incubated for 48 hrs by CCK8 assay", "format": "toxicity, cell-based", "conditions": "nci-h1299, 48 h, 0.025 µM"}, "[19]": {"tested_on": "HMEC-1", "assay": "Cytotoxicity against human HMEC-1 cells assessed as reduction in cell proliferation upto 25 nM measured after 48 hrs by CCK8 assay", "format": "toxicity, cell-based", "conditions": "hmec-1, 48 h, 0.025 µM"}, "[20]": {"assay": "Toxicity against BALB/c nude mouse xenografted with human NCI-H1299 cells assessed as morphological changes in lungs at 0.75 to 1.5 mg/kg, ip administered every other day for 20 days by Hematoxylin and eosin staining based inverted microscopic analysis", "format": "organism-based", "conditions": "in vivo, 480 h, dose 0.75-1.5 mg/kg, time 20 day"}, "[21]": {"tested_on": "HBVP", "assay": "Inhibition of PDGF-BB protein expression in human HBVP cells at 5 to 15 nM incubated for 24 hrs by western blot analysis", "format": "functional, cell-based", "conditions": "dose 5-15 nM"}, "[22]": {"tested_on": "HUVEC", "assay": "Cytotoxicity against human HUVEC cells assessed as reduction in cell proliferation upto 25 nM measured after 48 hrs by CCK8 assay", "format": "toxicity, cell-based", "conditions": "0.025 µM"}, "[23]": {"target": "Vascular endothelial growth factor receptor 2 (Homo sapiens) (UniProt P35968)", "assay": "Inhibition of VEGF-A-mediated VEGFR2 signaling pathway in human HMEC-1 cells assessed as reduction in Akt phosphorylation at Thr308 residue at 5 to 15 nM incubated for 36 hrs by western blot analysis", "format": "cell-based", "conditions": "dose 5-15 nM"}, "[24]": {"tested_on": "HUVEC", "assay": "Antiangiogenic activity against human HUVEC cells assessed as inhibition of cell invasion measured after 24 hrs by Transwell invasion assay", "format": "functional, cell-based", "conditions": "dose 5-15 nM"}, "[25]": {"tested_on": "HUVEC", "assay": "Antiangiogenic activity against human HUVEC cells assessed as inhibition of cell migration measured after 24 hrs by Transwell migration assay", "format": "functional, cell-based", "conditions": "dose 5-15 nM"}, "[26]": {"tested_on": "NCI-H1299", "assay": "Inhibition of VEGF-A secretion in human NCI-H1299 cells at 5 to 15 nM incubated for 24 hrs by ELISA", "format": "functional, cell-based", "conditions": "dose 5-15 nM"}, "[27]": {"tested_on": "HBVP", "assay": "Inhibition of cell adhesion in human HBVP cells assessed as reduction in cell adhesion number at 5 to 15 nM pretreated with compound for 24 hrs followed by culturing for 1 hr by crystal violet staining based inverted microscopic analysis", "format": "functional", "conditions": "dose 5-15 nM, time 25.0 hrs"}, "[28]": {"tested_on": "NCI-H1299", "assay": "Upregulation of E-Cadherin mRNA expression in human NCI-H1299 cells at 5 to 15 nM incubated for 24 hrs by qPCR analysis", "format": "functional, cell-based", "conditions": "dose 5-15 nM"}, "[29]": {"tested_on": "HMEC-1", "assay": "Antiangiogenic activity against human HMEC-1 cells assessed as inhibition of capillary tube-like structure formation incubated for 6 hrs by Matrigel based analysis", "format": "functional, cell-based", "conditions": "dose 5-20 nM"}, "[30]": {"target": "Vascular endothelial growth factor receptor 2 (Homo sapiens) (UniProt P35968)", "assay": "Inhibition of VEGF-A-mediated VEGFR2 signaling pathway in human HMEC-1 cells assessed as reduction in FAK phosphorylation at Tyr397 residue at 5 to 15 nM incubated for 36 hrs by western blot analysis", "format": "cell-based", "conditions": "dose 5-15 nM"}, "[31]": {"tested_on": "HMEC-1", "assay": "Inhibition of VEGF-A secretion in human HMEC-1 cells incubated for 36 hrs by ELISA", "format": "functional, cell-based", "conditions": "dose 5-15 nM"}, "[32]": {"tested_on": "HUVEC", "assay": "Antiangiogenic activity against human HUVEC cells assessed as inhibition of cell migration measured after 8 hrs by scratch wound healing assay", "format": "functional, cell-based", "conditions": "dose 5-15 nM"}, "[33]": {"tested_on": "HUVEC", "assay": "Antiangiogenic activity against human HUVEC cells assessed as inhibition of capillary tube-like structure formation incubated for 6 hrs by Matrigel based analysis", "format": "functional, cell-based", "conditions": "dose 5-20 nM"}}, "note": "Calls of active or inactive are those of the source. The calls are words filed in the database; no cut-off is given here.", "data": [{"smiles": "COc1ccc(C[C@@H]2NC(=O)[C@@]34OC(=O)O/C=C/[C@@](C)(O)C(=O)[C@@H](C)C/C=C/[C@H]3[C@H](O)[C@](C)(O)[C@@H](C)[C@@H]24)cc1", "note": "[SCOPARASIN B]", "values": [{"measurement": "inhibition", "setting": "[1]", "value": "Active"}, {"measurement": "Activity", "setting": "[2]", "value": 100, "unit": "%"}, {"measurement": "inhibition", "setting": "[3]", "value": "Active"}, {"measurement": "inhibition", "setting": "[4]", "value": "Active"}, {"measurement": "inhibition", "setting": "[5]", "value": "inactive"}, {"measurement": "inhibition", "setting": "[6]", "value": "Active"}, {"measurement": "inhibition", "setting": "[7]", "value": "Active"}, {"measurement": "inhibition", "setting": "[8]", "value": "Active"}, {"measurement": "inhibition", "setting": "[9]", "value": "Active"}, {"measurement": "inhibition", "setting": "[10]", "value": "Active"}, {"measurement": "inhibition", "setting": "[11]", "value": "Active"}, {"measurement": "Activity", "setting": "[12]", "value": "Non-Toxic"}, {"measurement": "inhibition", "setting": "[13]", "value": "Active"}, {"measurement": "inhibition", "setting": "[14]", "value": "Active"}, {"measurement": "Activity", "setting": "[15]", "value": "Dose-Dependent Effect"}, {"measurement": "IC50", "setting": "[16]", "value": 3.9, "unit": "µM"}, {"measurement": "inhibition", "setting": "[17]", "value": "Active"}, {"measurement": "Activity", "setting": "[18]", "value": "Non-Toxic"}, {"measurement": "Activity", "setting": "[19]", "value": "Non-Toxic"}, {"measurement": "Activity", "setting": "[20]", "value": "Non-Toxic"}, {"measurement": "inhibition", "setting": "[21]", "value": "Active"}, {"measurement": "Activity", "setting": "[22]", "value": "Non-Toxic"}, {"measurement": "inhibition", "setting": "[23]", "value": "Active"}, {"measurement": "Activity", "setting": "[24]", "value": "Dose-Dependent Effect"}, {"measurement": "Activity", "setting": "[25]", "value": "Dose-Dependent Effect"}, {"measurement": "inhibition", "setting": "[26]", "value": "Active"}, {"measurement": "inhibition", "setting": "[27]", "value": "Active"}, {"measurement": "Activity", "setting": "[28]", "value": "Active"}, {"measurement": "Activity", "setting": "[29]", "value": "Dose-Dependent Effect"}, {"measurement": "inhibition", "setting": "[30]", "value": "Active"}, {"measurement": "inhibition", "setting": "[31]", "value": "Dose-Dependent Effect"}, {"measurement": "Activity", "setting": "[32]", "value": "Dose-Dependent Effect"}, {"measurement": "Activity", "setting": "[33]", "value": "Dose-Dependent Effect"}]}]}
